# Data: PubChem BioAssay AID844 (SRMLSC, 2007)
# pEC50: −log10 of the molar value. Active and inactive are the calls of the source. No rule for the calls is given here.
# Test system: MRP1 cells, doxorubicin viability shift, 10 uM compound
# Assay: doxorubicin EC50 increase in MRP-1 cells, dose response, cell-based, doxorubicin EC50 shift (AID 844)
# Details: for pEC50: measured here: doxorubicin EC50 with compound
SMILES,fold increase in Dox EC50,pEC50
O=C(NNC(=O)c1cccnc1)Nc1cccc2ccccc12,0.66 (inactive),5.45
CCn1c(COc2ccc(Cl)cc2)nnc1SC1CCc2ccccc2C1=O (centres undefined),0.71 (inactive),5.42
C/C(=N/NC(=O)CSc1ccccn1)c1ccc([N+](=O)[O-])cc1,0.77 (inactive),5.38
CCCCNc1oc(-c2ccc(OC)cc2)nc1S(=O)(=O)c1ccccc1,0.72 (inactive),5.41
Cc1ccc(N2C(=O)NC(=O)/C(=C\c3ccsc3)C2=O)cc1C,0.8 (inactive),5.36
COc1ccc(Cc2nnc(NC(=O)c3c(-c4ccccc4)noc3C)s2)cc1OC,0.52 (inactive),5.55
Cc1nc2cc(-c3ccc(Cl)cc3)nn2c(C)c1CCC(=O)NC(C)c1ccc2c(c1)OCCO2 (centres undefined),0.52 (inactive),5.55
Cc1cc(C)nc(NN2C(=O)/C(=C/c3ccccc3)SC2=S)n1,1.56,5.07
C=CCc1c(C)nc(-c2ccccc2)nc1N/N=C(\C)c1ccc(N)cc1,1.3 (inactive),5.16
O=C(Nc1nc(COc2ccccc2)cs1)c1ccccc1F,1.76,5.02
Cc1cccc(-c2cc3nc(C)cc(N4CC(C)CC(C)C4)n3n2)c1 (centres undefined),0.49 (inactive),5.58
Cn1c(=O)[nH]c(=O)c2c1nc(SCC(=O)Nc1ccccc1)n2Cc1ccccc1,0.45 (inactive),5.61
O=C1NC(=Nc2ccc(Cl)cc2)SC1Cc1cccc(Cl)c1Cl (centres undefined),1.19 (inactive),5.19
Cc1cc(N/N=C/c2ccccc2Cl)nc(NCc2ccccc2)n1,0.2 (inactive),5.97
c1ccc(N2CCN(c3nc(-c4cccs4)nc4ccccc34)CC2)cc1,0.81 (inactive),5.36
CN(C)S(=O)(=O)c1ccc(S(=O)(=O)N2CCN(CCC#N)CC2)cc1,0.71 (inactive),5.41
CCC1(C)Cc2c(sc3nnn(Cc4ccccc4Cl)c(=O)c23)CO1 (centres undefined),0.81 (inactive),5.36
Cc1cccc(NC(=O)CC2SC(=O)N(c3ccccc3)C2=O)c1 (centres undefined),0.95 (inactive),5.29
Cc1ccc(C(c2sc3ncnn3c2O)N2CCC(C)CC2)cc1 (centres undefined),0.72 (inactive),5.41
O=C(COc1cccnc1[N+](=O)[O-])Nc1ccc2c(c1)OC(F)(F)O2,0.7 (inactive),5.42
N#Cc1c(-c2cccs2)nc(SCC(=O)c2cccs2)[nH]c1=O,1.12 (inactive),5.22
O=C1CC(N2CCC(O)(c3ccc(Br)cc3)CC2)C(=O)N1c1ccc(Cl)cc1 (centres undefined),1.37 (inactive),5.13
CCC(C)Nc1ncnc2c1cnn2Cc1ccc(Cl)cc1 (centres undefined),0.84 (inactive),5.34
Cc1nc(/N=C(\N)NC(=O)N2c3ccccc3Sc3ccccc32)nc2ccccc12,0.95 (inactive),5.29
CC/C(=N\NC(=O)C(N)=O)c1ccccc1O,0.61 (inactive),5.48
CC(C)c1ccc(C(=O)CSc2ncn[nH]2)cc1,0.96 (inactive),5.29

SMILES,fold increase in Dox EC50,pEC50
CC(C)N(Cc1cc2ccccc2[nH]c1=O)C(=O)C(C)(C)C,1.47 (inactive),5.10
COC(=O)N/N=C/c1ccc(-c2ccc(Cl)c(Cl)c2)o1,0.67 (inactive),5.44
CC(CCc1ccccc1)NC(=O)C1CCN(C(=O)c2sccc2-n2cccc2)CC1 (centres undefined),0.28 (inactive),5.82
Cc1nc2c(ccc3nc(NC(=O)C(c4ccccc4)c4ccccc4)sc32)s1,0.84 (inactive),5.35
O=C(Nc1ncc(Cc2ccc(C(F)(F)F)cc2)s1)c1ccc(-c2cccc([N+](=O)[O-])c2)o1,0.71 (inactive),5.41
CC(C)(C)c1ccc(OCC(O)CSc2ncn[nH]2)cc1 (centres undefined),0.88 (inactive),5.32
CCC1SC2=NC(C)=C(C(=O)OC)C(c3cccs3)N2C1=O (centres undefined),1.1 (inactive),5.23
Cc1ccc2nc3c(cc2c1)CC1(C(=O)N(C)C(=O)N(C)C1=O)C1CCCCN31 (centres undefined),0.59 (inactive),5.49
O=C(N/N=C/c1ccccc1[N+](=O)[O-])c1ccc(COc2ccccc2-c2ccccc2)cc1,1 (inactive),5.27
COc1cccc(/C=N/NC(=O)C(C)n2nc(C)c([N+](=O)[O-])c2C)c1O (centres undefined),0.33 (inactive),5.75
COc1ccc(NC(=O)CCCC2CCCCC2)cc1S(=O)(=O)N1CCCCC1,1.68,5.04
Cc1ccc(NC(=O)CSc2nc(O)cc(=O)n2C)cc1,1.34 (inactive),5.14
Cc1c(NC(=O)CSc2ccc(Cl)cc2)cccc1-c1nc2ncccc2o1,0.99 (inactive),5.27
Cc1ccc(NC(=O)CSc2nnc(C)n2-c2ccccc2)cc1,1.61,5.06
c1ccc(-c2ccc(-c3nc(-c4ccncc4)no3)cc2)cc1,0.41 (inactive),5.66
CCCOc1ccc(CSc2ncn[nH]2)cc1,0.89 (inactive),5.32
CC(NC(=O)c1ccc(Br)cc1)c1ccc2c(c1)CCCC2 (centres undefined),1.36 (inactive),5.13
CCCCc1ccc(NC(=O)c2c(C)noc2C)cc1,1.23 (inactive),5.18
COc1ccc(OCc2nc3ccc(S(=O)(=O)Nc4ccccc4Cl)cc3[nH]2)cc1,0.96 (inactive),5.29
CC(C)(C)c1ccc(-c2nc(-c3ccncc3)no2)cc1,0.77 (inactive),5.38
COc1ccc(-c2cc3nc(-c4ccccc4)cc(N4CCC5(CC4)OCCO5)n3n2)cc1,0.21 (inactive),5.94
CCOC(=O)c1ccc(N2CN=C3SCC(=O)N3C2)cc1,0.3 (inactive),5.79
O=C(NC1CCCC1)C(c1c[nH]c2ccccc12)N(C(=O)Cn1nnc(-c2ccc(Cl)cc2)n1)c1ccccc1 (centres undefined),0.99 (inactive),5.27
Oc1c(C(c2cccs2)N2CCN(c3ccc(F)cc3)CC2)sc2ncnn12 (centres undefined),1.32 (inactive),5.15
O=C1c2cccc3cccc(c23)C(=O)N1c1ccncc1,1.13 (inactive),5.22
O=C(O)/C=C\C(=O)NC1CCCCC1,0.68 (inactive),5.44

SMILES,fold increase in Dox EC50,pEC50
Cc1ccc(-c2cc(-c3ccccc3)no2)c(O)c1,0.59 (inactive),5.49
Cc1ccc(-c2nc(C3CCCN(S(=O)(=O)c4ccc(C)cc4)C3)no2)cc1 (centres undefined),1.08 (inactive),5.23
COc1ccc(/C=N/Nc2cc(OC)ncn2)cc1,0.57 (inactive),5.51
Cc1nnc(NC(=O)C(C)Sc2nncn2C)s1 (centres undefined),0.77 (inactive),5.38
CC1=C(C(=O)Nc2ccccc2C)C(c2ccc(C)o2)N2C(=O)CSC2=N1 (centres undefined),1.01 (inactive),5.27
CCOC(=O)c1c(-c2ccc(C)o2)csc1NC(=O)CSc1ncn[nH]1,0.51 (inactive),5.56
N#Cc1c(-c2ccco2)nc(SCC(=O)Nc2cccc(Cl)c2)[nH]c1=O,1.33 (inactive),5.14
CC(C)Cn1c2c(c(O)c(C(=O)Nc3nccs3)c1=O)CCCC2,0.83 (inactive),5.35
CCOc1ccc(C2CC(c3ccc(F)cc3)Nc3nc(N)nn32)cc1 (centres undefined),0.55 (inactive),5.53
Nc1ccc(CC2SC(=O)NC2=O)cc1 (centres undefined),1.24 (inactive),5.17
CCc1nnc(NC(=O)C2CCCN2S(=O)(=O)c2ccc(F)cc2)s1 (centres undefined),1.03 (inactive),5.26
Cc1ccc(C(C)C)c(OCc2nc(-c3nonc3N)no2)c1,1.51,5.09
CCN=c1scc(C)n1/N=C/c1ccc(O)c(O)c1O,0.18 (inactive),6.01
CCCCN(C(=O)Cc1cccs1)c1nnc(-c2cccnc2)s1,0.86 (inactive),5.33
COc1ccc(C(=O)NCc2ccc(-c3nc4ccccc4s3)cc2)cc1,1.57,5.07
O=C(Nc1nc(-c2ccc(Oc3ccccc3)cc2)cs1)C1=COCCO1,0.84 (inactive),5.34
CCN(CC)S(=O)(=O)c1ccc(NN=C(C#N)C#N)cc1,0.68 (inactive),5.43
O=C(CN1C(=O)S/C(=C\c2ccc(Cl)cc2)C1=O)NNC(=O)c1ccccc1O,1.05 (inactive),5.25
COc1ccc(NC(=O)c2c(F)cccc2F)cc1S(=O)(=O)Nc1ccc(Br)cc1,0.71 (inactive),5.41
CCC(Sc1nc(-c2ccccc2)c(C#N)c(=O)[nH]1)C(=O)Nc1nnc(C)s1 (centres undefined),1.82,5.01
Cc1ccc(S(=O)(=O)N2CCN(c3nc(C)c4c(c3C#N)CC(C)(C)OC4)CC2)cc1,0.72 (inactive),5.41
CCc1nccn1C(=O)c1cnn2c(C(F)F)cc(-c3ccc(C)cc3)nc12,0.1 (inactive),6.28
O=C1/C(=C\c2cccs2)N=C(c2cccs2)N1Nc1ccccc1,0.84 (inactive),5.34
N/C(Cc1cccs1)=N\OC(=O)COc1ccc(Br)cc1,1.01 (inactive),5.26
O=C(CCc1ccccc1)N/N=C/c1cc(Br)ccc1O,0.12 (inactive),6.20
